For experiment [1], the system named is Calf thymus DNA. The experiment is described as follows: Binding affinity to calf thymus DNA assessed as fluorescence quenching at DNA/compound ratio 4 by fluorescence spectrophotometer analysis. The conditions noted are these: Bos taurus. Type of experiment: nucleic-acid assay.
The test system of experiment [2] is Escherichia coli. The experiment is described as follows: Photo-cleavage activity in Escherichia coli supercoiled pUC19 DNA assessed as formation of linear form of DNA at 80 uM measured 2 hrs after UV-light irradiation by gel electrophoresis analysis.
Experiment [3] deals with Calf thymus DNA. The experiment is described as follows: Binding affinity to calf thymus DNA by UV-visible absorption spectroscopy. The note with it: for Kb: Bos taurus. It is filed as nucleic-acid assay, Bos taurus.
Experiment [4] concerns Calf thymus DNA. Nature of the experiment: Binding affinity to calf thymus DNA assessed as relative viscosity after 5 mins by semimicrodilution capillary viscometer analysis. It is filed as nucleic-acid assay. The note with it: Bos taurus. (Broth dilution looks for growth in wells or tubes with falling amounts of substance.)
Experiment [5] concerns Escherichia coli. The experiment is described as follows: Photo-cleavage activity in Escherichia coli supercoiled pUC19 DNA assessed as formation of open circular form of DNA at 60 uM measured 2 hrs after UV-light irradiation by gel electrophoresis analysis.
Experiment [6] has as its system Escherichia coli. The experiment is described as follows: Photo-cleavage activity in Escherichia coli supercoiled pUC19 DNA assessed as formation of nicked form of DNA at 20 to 40 uM measured 2 hrs after UV-light irradiation by gel electrophoresis analysis.
Experiment [7] concerns Escherichia coli. Nature of the experiment: Photo-cleavage activity in Escherichia coli supercoiled pUC19 DNA assessed as formation of nicked form of DNA at 80 uM measured 2 hrs after UV-light irradiation by gel electrophoresis analysis.
Experiment [8] relates to Escherichia coli. The experiment is described as follows: Photo-cleavage activity in Escherichia coli supercoiled pUC19 DNA assessed as formation of open circular form of DNA at 40 uM measured 2 hrs after UV-light irradiation by gel electrophoresis analysis.
The subject of experiment [9] is Escherichia coli. The experiment is described as follows: Photo-cleavage activity in Escherichia coli supercoiled pUC19 DNA assessed as formation of open circular form of DNA at 80 uM measured 2 hrs after UV-light irradiation by gel electrophoresis analysis.
Experiment [10] relates to Escherichia coli. Nature of the experiment: Photo-cleavage activity in Escherichia coli supercoiled pUC19 DNA assessed as formation of open circular form of DNA at 140 uM measured 2 hrs after UV-light irradiation by gel electrophoresis analysis.

Molecules are shown by their SMILES. Activity calls are given as the source filed them. No cut-off for these calls is given here.

By Ki is commonly meant the dissociation constant of the complex between target and ligand, obtained from inhibition or displacement. Lower therefore signals higher affinity.

In the case of `O=C(/C=C/c1cc2ccccc2nc1Cl)c1ccc(Br)cc1`, the outcome with Calf thymus DNA [1] and in the experiment on Calf thymus DNA [4] was Active. In addition, the Activity amounted to 24% in the experiment on Escherichia coli [2], 55% in the experiment with Escherichia coli [5], 8% in the experiment on Escherichia coli [6] and 70% with Escherichia coli [7]. For the same compound, in the experiment on Calf thymus DNA [3], the Ki turned out to be 468 nM. In the experiment with Calf thymus DNA [3], the Kb worked out at 4.2 ×10⁴ /M.

Take `O=C(/C=C/c1cc2ccccc2nc1Cl)c1ccc(Cl)cc1`: the outcome in the experiment on Calf thymus DNA [1] and in the experiment on Calf thymus DNA [4] was Active. For the same compound, the Activity is 24% in the experiment with Escherichia coli [2], 54% with Escherichia coli [5], 8% with Escherichia coli [6] and 70% with Escherichia coli [7]. The Ki in the experiment on Calf thymus DNA [3] was 562 nM. The compound further showed a Kb in the experiment on Calf thymus DNA [3] of 5.13 ×10⁴ /M.

On to `O=C(/C=C/c1cc2ccccc2nc1Cl)c1ccc(O)cc1`, for which the outcome in the experiment on Calf thymus DNA [1] and in the experiment with Calf thymus DNA [4] was Active. For the same compound, the Activity with Escherichia coli [2] turned out to be 24%; in the experiment on Escherichia coli [8], 24%; with Escherichia coli [5], 53%; in the experiment on Escherichia coli [6], 8%; in the experiment with Escherichia coli [9], 70%; in the experiment with Escherichia coli [7] it was 70%. Besides, the Kb with Calf thymus DNA [3] was found to be 1.9 ×10⁴ /M.

Turning to `COc1ccc(C(=O)/C=C/c2cc3ccccc3nc2Cl)cc1`, the result in the experiment with Calf thymus DNA [1] and in the experiment with Calf thymus DNA [4] was Active. Besides, the Activity in the experiment on Escherichia coli [2] is 24%; with Escherichia coli [10] it was 58%; in the experiment with Escherichia coli [5], 52%; with Escherichia coli [6] it was 8%; in the experiment on Escherichia coli [7], 70%. Further, the Kb in the experiment on Calf thymus DNA [3] was found to be 2.8 ×10⁴ /M.

Regarding `O=C(/C=C/c1cc2ccccc2nc1Cl)c1ccc([N+](=O)[O-])cc1`, the outcome in the experiment with Calf thymus DNA [1] and with Calf thymus DNA [4] was Active. Moreover, the Activity in the experiment with Escherichia coli [2] turned out to be 24%; in the experiment on Escherichia coli [5] it was 56%; in the experiment with Escherichia coli [6], 8%; in the experiment with Escherichia coli [7], 70%. Further, in the experiment on Calf thymus DNA [3], the Ki came to 531 nM. In the experiment on Calf thymus DNA [3], this compound yielded a Kb of 4.91 ×10⁴ /M.

`O=C(/C=C/c1cc2ccccc2nc1Cl)c1ccccc1`: the result in the experiment with Calf thymus DNA [1] and in the experiment on Calf thymus DNA [4] was Active. The Activity in the experiment on Escherichia coli [2] was 24%; in the experiment with Escherichia coli [5] it was 50%; in the experiment on Escherichia coli [6], 8%; with Escherichia coli [7] it was 70%. For the same compound, affinity in the experiment with Calf thymus DNA [3] was put at a Ki of 572 nM. Besides, the Kb with Calf thymus DNA [3] was 5.2 ×10⁴ /M.

With `CNc1ccc(C(=O)/C=C/c2cc3ccccc3nc2Cl)cc1`, the Activity in the experiment with Escherichia coli [2] was 24%; in the experiment on Escherichia coli [5], 57%; with Escherichia coli [6], 8%; in the experiment on Escherichia coli [9], 40%; in the experiment with Escherichia coli [7], 40%. In addition, the Kb with Calf thymus DNA [3] stood at 3.5 ×10⁴ /M.

In the case of `Cc1ccc(C(=O)/C=C/c2cc3ccccc3nc2Cl)cc1`, the outcome with Calf thymus DNA [1] and with Calf thymus DNA [4] was Active. Also, the Activity with Escherichia coli [2] is 24%; with Escherichia coli [5], 51%; in the experiment with Escherichia coli [6] it was 8%; in the experiment with Escherichia coli [7], 70%. The compound further came in with a Ki in the experiment with Calf thymus DNA [3] of 540 nM. The Kb in the experiment with Calf thymus DNA [3] was 4.9 ×10⁴ /M.

These data come from ChEMBL document CHEMBL3621078, “Synthesis, DNA binding, docking and photocleavage studies of quinolinyl chalcones” (Medchemcomm, 2014).
